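Where inhibition never reached the appropriate level, the endpoint shown equals the highest concentration tested. Otherwise, values were interpolated linearly from a five-concentration, 48-hour dose response in 96-well plates. Abbreviation: GI50, concentration required for 50% inhibition of growth.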 The source made the active and inactive calls. No stated cut-off is given here; in the data, active = GI50 up to about 1.1 µM and inactive = higher.
Legend:
Assay in all cases: NCI tumour cell line growth inhibition, 48 h
A498 = system: A498
K562 = system: K562
NCI-H23 = system: NCI-H23
786-0 = system: 786-0
HCC 2998 = system: HCC 2998
UO-31 = system: UO-31
NCI-H226 = system: NCI-H226
OVCAR-5 = system: OVCAR-5
Hs-578T = system: Hs-578T
MOLT-4 = system: MOLT-4
MDA-MB-231 = system: MDA-MB-231
NCI/ADR-RES = system: NCI/ADR-RES
SK-MEL-2 = system: SK-MEL-2
A549 = system: A549
MDA-N = system: MDA-N
HOP-92 = system: HOP-92
CAKI-1 = system: CAKI-1
CCRF-CEM = system: CCRF-CEM
HT-29 = system: HT-29
KM12 = system: KM12
LOX IMVI = system: LOX IMVI
SW-620 = system: SW-620
SK-OV-3 = system: SK-OV-3
OVCAR-8 = system: OVCAR-8
M14 = system: M14
ACHN = system: ACHN
SF-295 = system: SF-295
MDA-MB-435 = system: MDA-MB-435
TK-10 = system: TK-10
HL-60 = system: HL-60
SF-268 = system: SF-268
Malme-3M = system: Malme-3M
NCI-H460 = system: NCI-H460
RPMI-8226 = system: RPMI-8226
U-251 = system: U-251
SN12C = system: SN12C
T47D = system: T47D
OVCAR-3 = system: OVCAR-3
EKVX = system: EKVX
SNB-75 = system: SNB-75
SK-MEL-28 = system: SK-MEL-28
RXF 393 = system: RXF 393
MCF7 = system: MCF7
COLO 205 = system: COLO 205
UACC-257 = system: UACC-257
SNB-19 = system: SNB-19
BT-549 = system: BT-549
NCI-H522 = system: NCI-H522
DU-145 = system: DU-145
IGROV-1 = system: IGROV-1
SK-MEL-5 = system: SK-MEL-5
HCT-15 = system: HCT-15
HCT-116 = system: HCT-116
HOP-62 = system: HOP-62
UACC-62 = system: UACC-62
PC-3 = system: PC-3
SR = system: SR
SF-539 = system: SF-539
OVCAR-4 = system: OVCAR-4

Structure (SMILES): NCCNCCCNC(=O)c1cc(-c2ccccc2)nc2ccccc12
- GI50 (A498): 41.7 µM (inactive)
- GI50 (K562): 23.1 µM (inactive)
- GI50 (NCI-H23): 30.6 µM (inactive)
- GI50 (786-0): 22.3 µM (inactive)
- GI50 (HCC 2998): 19.6 µM (inactive)
- GI50 (UO-31): 46 µM (inactive)
- GI50 (NCI-H226): > 100 µM (inactive)
- GI50 (OVCAR-5): 46.3 µM (inactive)
- GI50 (Hs-578T): 48.3 µM (inactive)
- GI50 (MOLT-4): 22.1 µM (inactive)
- GI50 (MDA-MB-231): 31.3 µM (inactive)
- GI50 (NCI/ADR-RES): > 100 µM (inactive)
- GI50 (SK-MEL-2): 21 µM (inactive)
- GI50 (A549): 41.6 µM (inactive)
- GI50 (MDA-N): 25.5 µM (inactive)
- GI50 (HOP-92): 13.7 µM (inactive)
- GI50 (CAKI-1): 52.4 µM (inactive)
- GI50 (CCRF-CEM): 21 µM (inactive)
- GI50 (HT-29): 36.2 µM (inactive)
- GI50 (KM12): 33.1 µM (inactive)
- GI50 (LOX IMVI): 28.3 µM (inactive)
- GI50 (SW-620): 34 µM (inactive)
- GI50 (SK-OV-3): 65 µM (inactive)
- GI50 (OVCAR-8): 85.5 µM (inactive)
- GI50 (M14): 15.1 µM (inactive)
- GI50 (ACHN): 38.1 µM (inactive)
- GI50 (SF-295): 28.6 µM (inactive)
- GI50 (MDA-MB-435): 20.8 µM (inactive)
- GI50 (TK-10): 62.7 µM (inactive)
- GI50 (HL-60): 30.6 µM (inactive)
- GI50 (SF-268): 26.1 µM (inactive)
- GI50 (Malme-3M): 16.8 µM (inactive)
- GI50 (NCI-H460): 35.2 µM (inactive)
- GI50 (RPMI-8226): 54 µM (inactive)
- GI50 (U-251): 17.6 µM (inactive)
- GI50 (SN12C): 40.8 µM (inactive)
- GI50 (T47D): 38.5 µM (inactive)
- GI50 (OVCAR-3): > 100 µM (inactive)
- GI50 (EKVX): > 100 µM (inactive)
- GI50 (SNB-75): > 10 µM (inactive)
- GI50 (SK-MEL-28): 16.7 µM (inactive)
- GI50 (RXF 393): 38.8 µM (inactive)
- GI50 (MCF7): 45.4 µM (inactive)
- GI50 (COLO 205): 16.2 µM (inactive)
- GI50 (UACC-257): 24.1 µM (inactive)
- GI50 (SNB-19): 50 µM (inactive)
- GI50 (BT-549): 55.8 µM (inactive)
- GI50 (NCI-H522): 17.6 µM (inactive)
- GI50 (DU-145): > 100 µM (inactive)
- GI50 (IGROV-1): > 100 µM (inactive)
- GI50 (SK-MEL-5): 15.6 µM (inactive)
- GI50 (HCT-15): > 100 µM
- GI50 (HCT-116): 35.6 µM (inactive)
- GI50 (HOP-62): 27.2 µM (inactive)
- GI50 (UACC-62): 19.9 µM (inactive)
- GI50 (PC-3): 51.3 µM (inactive)
- GI50 (SR): 28.3 µM (inactive)
- GI50 (SF-539): 19.6 µM (inactive)

Structure (SMILES): CN1CCN(c2n[nH]c(=O)c3c2nnn3C2CCCCC2)CC1
- GI50 (A498): > 100 µM (inactive)
- GI50 (K562): > 100 µM (inactive)
- GI50 (NCI-H23): > 100 µM (inactive)
- GI50 (786-0): > 100 µM (inactive)
- GI50 (HCC 2998): > 100 µM (inactive)
- GI50 (UO-31): > 100 µM (inactive)
- GI50 (NCI-H226): > 100 µM (inactive)
- GI50 (OVCAR-5): > 100 µM (inactive)
- GI50 (Hs-578T): > 100 µM (inactive)
- GI50 (MOLT-4): > 100 µM (inactive)
- GI50 (MDA-MB-231): > 100 µM (inactive)
- GI50 (NCI/ADR-RES): > 100 µM (inactive)
- GI50 (SK-MEL-2): > 100 µM (inactive)
- GI50 (A549): > 100 µM (inactive)
- GI50 (MDA-N): > 100 µM (inactive)
- GI50 (HOP-92): > 100 µM (inactive)
- GI50 (CAKI-1): > 100 µM (inactive)
- GI50 (CCRF-CEM): > 100 µM (inactive)
- GI50 (HT-29): > 100 µM (inactive)
- GI50 (KM12): > 100 µM (inactive)
- GI50 (LOX IMVI): > 100 µM (inactive)
- GI50 (SW-620): > 100 µM (inactive)
- GI50 (OVCAR-8): > 100 µM (inactive)
- GI50 (M14): > 100 µM (inactive)
- GI50 (ACHN): > 100 µM (inactive)
- GI50 (SF-295): > 100 µM (inactive)
- GI50 (MDA-MB-435): > 100 µM (inactive)
- GI50 (TK-10): > 100 µM (inactive)
- GI50 (HL-60): > 100 µM (inactive)
- GI50 (SF-268): > 100 µM (inactive)
- GI50 (OVCAR-4): > 100 µM (inactive)
- GI50 (Malme-3M): > 100 µM (inactive)
- GI50 (NCI-H460): > 100 µM (inactive)
- GI50 (RPMI-8226): > 100 µM (inactive)
- GI50 (U-251): > 100 µM (inactive)
- GI50 (SN12C): > 100 µM (inactive)
- GI50 (T47D): > 100 µM (inactive)
- GI50 (OVCAR-3): > 100 µM (inactive)
- GI50 (EKVX): > 100 µM (inactive)
- GI50 (SNB-75): > 100 µM (inactive)
- GI50 (SK-MEL-28): > 100 µM (inactive)
- GI50 (RXF 393): > 100 µM (inactive)
- GI50 (MCF7): > 100 µM (inactive)
- GI50 (COLO 205): > 100 µM (inactive)
- GI50 (UACC-257): > 100 µM (inactive)
- GI50 (SNB-19): > 100 µM (inactive)
- GI50 (BT-549): > 100 µM (inactive)
- GI50 (NCI-H522): > 100 µM (inactive)
- GI50 (DU-145): > 100 µM (inactive)
- GI50 (IGROV-1): > 100 µM (inactive)
- GI50 (SK-MEL-5): > 100 µM (inactive)
- GI50 (HCT-15): > 100 µM
- GI50 (HCT-116): > 100 µM (inactive)
- GI50 (HOP-62): > 100 µM (inactive)
- GI50 (UACC-62): > 100 µM (inactive)
- GI50 (PC-3): > 100 µM (inactive)
- GI50 (SR): > 100 µM (inactive)
- GI50 (SF-539): > 100 µM (inactive)
